From ChEMBL document CHEMBL5137026, “Novel deuterated Mnk1/2 protein degrader VNLG-152R analogs: Synthesis, In vitro Anti-TNBC activities and pharmacokinetics in mice” (Eur J Med Chem, 2022)

Assays:
[1] = tested on: MDA-MB-231; experiment: Antiproliferative activity against human MDA-MB-231 cells measured after 6 days by MTT assay; type: functional; settings: MDA-MB-231, 144 h, time 6 day
[2] = tested on: MDA-MB-468; experiment: Antiproliferative activity against human MDA-MB-468 cells measured after 6 days by MTT assay; type: functional; settings: MDA-MB-468, 144 h, time 6 day
[3] = tested on: MDA-MB-231; experiment: Antiproliferative activity against human MDA-MB-231 cells measured after 24 hrs by MTT assay; type: functional
[4] = tested on: MDA-MB-231; experiment: Induction of apoptosis in human MDA-MB-231 cells assessed as downregulation of […] measured after 24 hrs by SDS PAGE based Western blotting analysis; type: functional, cell-based
[5] = tested on: MDA-MB-468; experiment: Induction of apoptosis in human MDA-MB-468 cells assessed as downregulation of […] measured after 24 hrs by SDS PAGE based Western blotting analysis; type: functional, cell-based
[6] = tested on: MDA-MB-231; experiment: Induction of apoptosis in human MDA-MB-231 cells assessed as downregulation of Bcl-2 measured after 24 hrs by SDS PAGE based Western blotting analysis; type: functional, cell-based
[7] = tested on: MDA-MB-468; experiment: Induction of apoptosis in human MDA-MB-468 cells assessed as downregulation of Bcl-2 measured after 24 hrs by SDS PAGE based Western blotting analysis; type: functional, cell-based
[8] = tested on: MDA-MB-231; experiment: Induction of apoptosis in human MDA-MB-231 cells assessed as upregulation of Bax measured after 24 hrs by SDS PAGE based Western blotting analysis; type: functional, cell-based
[9] = tested on: MDA-MB-468; experiment: Induction of apoptosis in human MDA-MB-468 cells assessed as upregulation of Bax measured after 24 hrs by SDS PAGE based Western blotting analysis; type: functional, cell-based
[10] = tested on: MDA-MB-231; experiment: Downregulation of Mnk1 in human MDA-MB-231 cells measured after 24 hrs by SDS PAGE based Western blotting analysis; type: functional, cell-based
[11] = tested on: MDA-MB-231; experiment: Downregulation of PeIF4E in human MDA-MB-231 cells measured after 24 hrs by SDS PAGE based Western blotting analysis; type: functional, cell-based
[12] = Cmax in po dosed CD-1 mouse by LC/MS/MS analysis; type: ADME, organism-based; parameters: route po; settings: in vivo
[13] = Tmax in po dosed CD-1 mouse by LC/MS/MS analysis; type: ADME, organism-based; settings: in vivo
[14] = Half life in po dosed CD-1 mouse by LC/MS/MS analysis; type: ADME, organism-based; settings: in vivo
[15] = AUC in po dosed CD-1 mouse by LC/MS/MS analysis; type: ADME, organism-based; parameters: route po; settings: in vivo
[16] = MRT in po dosed CD-1 mouse by LC/MS/MS analysis; type: ADME, organism-based; settings: in vivo
[17] = dose 5-20 µM, tested as the 2H-labelled form, DDE = dose-dependent effect
[18] = dose 5-20 µM, DDE = dose-dependent effect, tested as the 2H-labelled form
[19] = dose 5-20 µM, DDE = dose-dependent effect

SMILES: CC(=O)O[C@H]1C(=O)[C@@]2(C)[C@H]([C@H](OC(=O)c3ccccc3)[C@]3(O)C[C@H](OC(=O)[C@H](O)[C@@H](NC(=O)c4ccccc4)c4ccccc4)C(C)=C1C3(C)C)[C@]1(OC(C)=O)CO[C@@H]1C[C@@H]2O [PACLITAXEL]
- GI50 [1]: 220 nM
- GI50 [2]: 100 nM
- GI50 [3]: 300 nM

SMILES: CC1=C(/C=C/C(C)=C/C=C/C(C)=C/C(=O)Nc2ccc(F)cc2)C(C)(C)CCC1n1ccnc1 (racemic; form 5)
- Activity [4, 17]: Dde
- Activity [5, 17]: Dde
- Activity [6, 17]: Dde
- Activity [7, 18]: Dde
- Activity [8, 17]: Dde
- Activity [9, 18]: Dde
- Activity [10, 17]: Dde
- Activity [11, 17]: Dde

SMILES: CC1=C(/C=C/C(C)=C/C=C/C(C)=C/C(=O)Nc2ccc(F)cc2)C(C)(C)CCC1n1ccnc1 (racemic; form 8)
- Activity [4, 18]: Dde
- Activity [5, 18]: Dde
- Activity [6, 18]: Dde
- Activity [7, 17]: Dde
- Activity [8, 17]: Dde
- Activity [9, 18]: Dde
- Activity [10, 18]: Dde
- Activity [11, 17]: Dde

SMILES: CC1=C(/C=C/C(C)=C/C=C/C(C)=C/C(=O)Nc2ccc(F)cc2)C(C)(C)CCC1n1ccnc1 (racemic; form 1) [listing 1 of 2 here]
- Activity [4, 19]: Dde
- Activity [5, 19]: Dde
- Activity [6, 19]: Dde
- Activity [7, 19]: Dde
- Activity [8, 19]: Dde
- Activity [9, 19]: Dde
- Activity [10, 19]: Dde
- Activity [11, 19]: Dde

SMILES: CC1=C(/C=C/C(C)=C/C=C/C(C)=C/C(=O)Nc2ccc(F)cc2)C(C)(C)CCC1n1ccnc1 (racemic; form 7)
- Activity [4, 17]: Dde
- Activity [5, 18]: Dde
- Activity [6, 18]: Dde
- Activity [7, 18]: Dde
- Activity [8, 17]: Dde
- Activity [9, 18]: Dde
- Activity [10, 17]: Dde
- Activity [11, 17]: Dde

SMILES: [2H]c1nc([2H])n(C2CCC(C)(C)C(/C=C/C(C)=C/C=C/C(C)=C/C(=O)Nc3c([2H])c([2H])c(F)c([2H])c3[2H])=C2C)c1[2H] (racemic)
- GI50 [1]: 620 nM
- GI50 [2]: 250 nM
- Cmax [12]: 455 ng/mL
- Tmax [13]: 0.83 h
- half-life [14]: 4.34 h
- AUC [15]: 2060 ng·h/mL
- MRT [16]: 2.89 h

SMILES: CC1=C(/C=C/C(C)=C/C=C/C(C)=C/C(=O)Nc2ccc(F)cc2)C(C)(C)CCC1n1ccnc1 (racemic; form 3)
- Activity [4, 18]: Dde
- Activity [5, 17]: Dde
- Activity [6, 18]: Dde
- Activity [7, 17]: Dde
- Activity [8, 18]: Dde
- Activity [9, 17]: Dde
- Activity [10, 18]: Dde
- Activity [11, 18]: Dde

SMILES: CC1=C(/C=C/C(C)=C/C=C/C(C)=C/C(=O)Nc2ccc(F)cc2)C(C)(C)CCC1n1ccnc1 (racemic; form 4)
- Activity [4, 18]: Dde
- Activity [5, 17]: Dde
- Activity [6, 18]: Dde
- Activity [7, 17]: Dde
- Activity [8, 17]: Dde
- Activity [9, 18]: Dde
- Activity [10, 18]: Dde
- Activity [11, 18]: Dde

SMILES: [2H]c1c([2H])c(NC(=O)/C=C(C)/C=C/C=C(C)/C=C/C2=C(C)C([2H])(n3ccnc3)CCC2(C)C)c([2H])c([2H])c1F (racemic)
- GI50 [1]: 620 nM
- GI50 [2]: 270 nM
- Cmax [12]: 1360 ng/mL
- Tmax [13]: 0.75 h
- half-life [14]: 10.2 h
- AUC [15]: 15500 ng·h/mL
- MRT [16]: 8.48 h

SMILES: CC1=C(/C=C/C(C)=C/C=C/C(C)=C/C(=O)Nc2ccc(F)cc2)C(C)(C)CCC1n1ccnc1 (racemic; form 2)
- Activity [4, 17]: Dde
- Activity [5, 18]: Dde
- Activity [6, 18]: Dde
- Activity [7, 17]: Dde
- Activity [8, 17]: Dde
- Activity [9, 17]: Dde
- Activity [10, 17]: Dde
- Activity [11, 17]: Dde

SMILES: [2H]C1(n2ccnc2)CCC(C)(C)C(/C=C/C(C)=C/C=C/C(C)=C/C(=O)Nc2ccc(F)cc2)=C1C (racemic)
- GI50 [1]: 860 nM
- GI50 [2]: 190 nM
- Cmax [12]: 1030 ng/mL
- Tmax [13]: 2.5 h
- half-life [14]: 12.1 h
- AUC [15]: 17600 ng·h/mL
- MRT [16]: 9.06 h

SMILES: CC1=C(/C=C/C(C)=C/C=C/C(C)=C/C(=O)Nc2ccc(F)cc2)C(C)(C)CCC1n1ccnc1 (racemic; form 6)
- Activity [4, 17]: Dde
- Activity [5, 18]: Dde
- Activity [6, 17]: Dde
- Activity [7, 17]: Dde
- Activity [8, 18]: Dde
- Activity [9, 17]: Dde
- Activity [10, 17]: Dde
- Activity [11, 17]: Dde

SMILES: [2H]c1nc([2H])n(C2CCC(C)(C)C(/C=C/C(C)=C/C=C/C(C)=C/C(=O)Nc3ccc(F)cc3)=C2C)c1[2H] (racemic)
- GI50 [1]: 710 nM
- GI50 [2]: 280 nM
- Cmax [12]: 151 ng/mL
- Tmax [13]: 1.33 h
- half-life [14]: 8.39 h
- AUC [15]: 1740 ng·h/mL
- MRT [16]: 3.57 h

SMILES: [2H]c1nc([2H])n(C2([2H])CCC(C)(C)C(/C=C/C(C)=C/C=C/C(C)=C/C(=O)Nc3ccc(F)cc3)=C2C)c1[2H] (racemic)
- GI50 [1]: 830 nM
- GI50 [2]: 270 nM
- Cmax [12]: 501 ng/mL
- Tmax [13]: 0.67 h
- half-life [14]: 4.27 h
- AUC [15]: 2700 ng·h/mL
- MRT [16]: 5.49 h

SMILES: [2H]c1c([2H])c(NC(=O)/C=C(C)/C=C/C=C(C)/C=C/C2=C(C)C(n3ccnc3)CCC2(C)C)c([2H])c([2H])c1F (racemic)
- GI50 [1]: 770 nM
- GI50 [2]: 270 nM
- Cmax [12]: 273 ng/mL
- Tmax [13]: 0.83 h
- half-life [14]: 4.9 h
- AUC [15]: 1730 ng·h/mL
- MRT [16]: 4.63 h

SMILES: CC1=C(/C=C/C(C)=C/C=C/C(C)=C/C(=O)Nc2ccc(F)cc2)C(C)(C)CCC1n1ccnc1 (racemic; form 1) [listing 2 of 2 here]
- GI50 [1]: 830 nM
- GI50 [2]: 400 nM
- Cmax [12]: 4650 ng/mL
- Tmax [13]: 0.83 h
- half-life [14]: 3.61 h
- AUC [15]: 22800 ng·h/mL
- MRT [16]: 3.02 h

SMILES: [2H]c1nc([2H])n(C2([2H])CCC(C)(C)C(/C=C/C(C)=C/C=C/C(C)=C/C(=O)Nc3c([2H])c([2H])c(F)c([2H])c3[2H])=C2C)c1[2H] (racemic)
- GI50 [1]: 710 nM
- GI50 [2]: 290 nM
- Cmax [12]: 1620 ng/mL
- Tmax [13]: 2.67 h
- half-life [14]: 10.3 h
- AUC [15]: 22600 ng·h/mL
- MRT [16]: 8.92 h
